Data from patent US6589966B1, “Cytotoxic metal chelators and methods for making and using same” (Wake Forest University Health Sciences, priority 1998, dated 2003).
Like-named read-outs stand apart in the source and are kept apart here.

How the values were obtained:
[1] = tested on: mouse (MBT2) bladder cancer cells; assay: MTT dye reduction cell viability assay on MBT2 cells; type: cell-based
Protocol: (§1) The cytotoxic effects of tachpyr on mouse (MBT2) and human (T24) bladder cancer cells were evaluated in vitro, and compared to normal human fibroblasts (MRC-5). MBT2 cells were provided by Dr. L. Lattime (Thomas Jefferson University, Philadelphia, Pa.), while MRC-5 cells were a gift of H. Blau (Standford University, Standford, Calif.). T24 cells were obtained from ATTC (Rockville, Md.). Cells were grown in RPMI (MBT2) or DME medium (T24 and MRC-5) containing 10% fetal bovine serum in a humidified chamber containing 5% CO2. 5×10^3 cells were plated into 96-well tissue culture dishes, and permitted to attach overnight. Test compounds were then added, with six replicate cultures used for each point.
After 72 hours, cell viability was assessed using an MTT dye reduction assay [Mosmann, T., J. Immunol. Meth. 65:55 (1983)]. The MTT assay is widely used to measure drug effects on cell viability. [see Richardson, D., Blood 86:4295 (1995); Brüggerman, S., Cancer Res. 57:2676 (1997); and Silber, R., Blood 84:3440 (1994)]. Specifically, (3-(4,5-dimethylthiazol-2-yl)-2,5-diphenyl tetraxolium bromide was added to the medium, and the formation of a reduced product was assayed by measuring the optical density at 560/650 nm after 3 hours. Color formation was considered proportional to viable cell numbers. IC50 was defined as the concentration required to inhibit viability by 50%, and was calculated using the Multiple Drug-effect Analysis Program (Biosoft).
MBT2 cells were then incubated with 150 μM (dfo) or 25 μM tachpyr for various lengths of time, and survival was then measured using the MTT assay described above. Viability at time 0 was defined as 100%. […] Rather, cytotoxicity was delayed by approximately 24 hours, paralleling the cytotoxic time course of desferioxamine.
The metal complexes of tachpyr were prepared as disclosed in Example 3, and their effects on MBT2 cells were compared to those of tachpyr after 72 hours using the MTT assay referenced in Example 8.

[2] = tested on: tumor cells; details: background statement; cited from earlier work
[3] = Richardson, D., Blood 86:4295 (1995); cited from earlier work
[4] = tested on: cell culture; assay: Preliminary cell culture experiments comparing toxicity of tachpyr with tachpn; type: cell-based
Source text: In order to further explore the hypothesis that oxidative dehydrogenation is involved in chelator toxicity, the tach-based chelator with three N-propyleneamino arms (termed tachpn, Scheme 4 as shown in FIG. 3) has been studied. Tachpn is distinguished from tachpyr in having the —C(H)(CH3)(NH2) fragment in place of the pyridine ring. The α-hydrogens of tachpn are sterically hindered, relative to tachpyr, by the methyl group in the β position, so that tachpn may have a lower propensity toward α-hydrogen abstraction. Further, the pseudo-benzylic H^a of tachpyr would also have a potentially greater tendency to be abstracted, as compared to tachpn, on electronic grounds [see March, J., Advanced Organic Chemistry. McGraw-Hill, pp 914 ff) The considerations would imply that tachpn is less able than tachpyr to undergo oxidative dehydrogenation and to reduce Fe(III). Preliminary cell culture experiments were conducted to compare the toxicity of tachpyr with tachpn (FIG. 3).

[5] = tested on: tumor cells
[6] = tested on: normal human fibroblasts (MRC-5); assay: MTT dye reduction cell viability assay on MRC-5 cells; type: cell-based; details: cell type MRC-5, 72 hours, read-out: IC50(μM) of Tachpyr
Protocol: as §1
(§2) After 72 hours, cell viability was assessed using an MTT dye reduction assay [Mosmann, T., J. Immunol. Meth. 65:55 (1983)]. The MTT assay is widely used to measure drug effects on cell viability. [see Richardson, D., Blood 86:4295 (1995); Brüggerman, S., Cancer Res. 57:2676 (1997); and Silber, R., Blood 84:3440 (1994)]. […]

[7] = tested on: human (T24) bladder cancer cells; assay: MTT dye reduction cell viability assay on T24 cells; type: cell-based; details: cell type T24, 72 hours, read-out: IC50(μM) of Tachpyr
Protocol: as §1, §2

[8] = tested on: breast cancer cell lines; assay: Cytotoxicity to breast cancer cell lines; type: cell-based
[9] = tested on: MBT2 or T24 cultured bladder cancer cells; assay: Cytotoxicity toward cultured bladder tumor cells; type: cell-based; details: cultured human and mouse bladder tumor cells
Protocol: as §1, §2

[10] = tested on: ferritin synthesis; assay: Ferritin synthesis (35S labeling, immunoprecipitation, SDS PAGE); type: cell-based; details: 20 μM tachpyr, 16 hours
Protocol: Ferritin is a major iron storage protein whose synthesis is dependent upon intracellular concentrations of iron. To examine the role of tachpyr in the chelation of intracellular iron, the influence of tachpyr on ferritin synthesis was examined. Cells were exposed for either 7 or 16 hours to media containing either no additions, 20 μM tachpyr, 150 μM desferioxamine or 200 μM ferric nitrolotriacetate. During the last two hours of incubation, cells were metabolically labeled with S-translabel (ICN) and ferritin visualized by immunoprecipitation and SDS PAGE [Torti, S. et al.,J. Biol. Chem. 263:12638 (1988).]

[11] = tested on: RAW 264.7 cells; assay: Apoptosis: DNA fragmentation by agarose gel electrophoresis; type: cell-based; details: 25 μM, 0, 6, 12 and 20 hours
Source text: Apoptosis, or “programmed cell death,” is a process initiated by many anti-cancer agents. Pathways of apoptosis involve complex intracellular changes, including the action of intracellular proteases (caspases), release of cytochrome C, mitochondrial changes, nuclear condensation and fragmentation, and ultimately cell death. A hallmark of apoptotic cell death is the appearance of “DNA ladders”: DNA cleaved at […] regions to generate a series of DNA fragments that can be visualized using agarose gel electrophoresis. In order to determine whether tachpyr triggers apoptotic pathways, DNA was isolated from RAW 264.7 cells that had been treated with 25 μM tachpyr for 0, 6, 12 and 20 hours. DNA was also isolated from cells treated for 7 hours with 50 μM cisplatin or 500 μM etoposide (VP16). Cisplatin and etoposide are DNA damaging agents that are currently used in cancer therapy and are known to induce apoptosis. They served as positive controls. We compared the effects of tachpyr, VP16 and cisplatin on DNA fragmentation using agarose gel electrophoresis. […] Thus, cytotoxic pathways elicited by tachpyr are similar to those evoked by classic anti-cancer agents, and are consistent with its contemplated use as a chemotherapeutic agent.

[12] = tested on: MBT2 cells; assay: Clonogenic assay; type: cell-based, mouse; details: 72 hours with tachpyr, colonies grown seven days
Protocol: Cell viability was also-assessed using a clonogenic assay, which measures the ability of cells to divide and form visible colonies of about 50 or more cells. Replicate plates were exposed to various concentrations of tachpyr added to the growth medium. Control cells received no tachpyr. At the end of the incubation period, the surviving cells were trypsinized, diluted, and re-plated in growth medium without tachpyr. Colonies were permitted to grow for seven days. The growth medium was then removed, and plates were fixed with 0.5% gluteraldehyde, stained with 1% crystal violet, and then counted.

[Cl-].[Cl-].[Cu+2].c1ccc(CNC2CC(NCc3ccccn3)CC(NCc3ccccn3)C2)nc1 (centres unmarked) [CU(II) complex of tachpyr]
cytotoxicity (in words) ([1]; MBT2 cells, 72 hours, MTT): not toxic

[Ca+2].[Cl-].[Cl-].c1ccc(CNC2CC(NCc3ccccn3)CC(NCc3ccccn3)C2)nc1 (centres unmarked) [Ca(II) complex of tachpyr]
cytotoxicity (in words) ([1]; MBT2 cells, 72 hours, MTT): toxic

[Cl-].[Cl-].[Mg+2].c1ccc(CNC2CC(NCc3ccccn3)CC(NCc3ccccn3)C2)nc1 (centres unmarked) [MG(II) complex of tachpyr]
cytotoxicity (in words) ([1]; MBT2 cells, 72 hours, MTT): toxic

[Mn+2].[O-][Cl+3]([O-])([O-])[O-].[O-][Cl+3]([O-])([O-])[O-].c1ccc(CNC2CC(NCc3ccccn3)CC(NCc3ccccn3)C2)nc1 (centres unmarked) [MN(II) complex of tachpyr]
cytotoxicity (in words) ([1]; MBT2 cells, 72 hours, MTT): toxic

[O-][Cl+3]([O-])([O-])[O-].[O-][Cl+3]([O-])([O-])[O-].[Zn+2].c1ccc(CNC2CC(NCc3ccccn3)CC(NCc3ccccn3)C2)nc1 (centres unmarked) [Zn(II) complex of tachpyr]
cytotoxicity (in words) ([1]; MBT2 cells, 72 hours, MTT): not toxic

c1ccc(-c2ccccn2)nc1 [bipy]
cytotoxic effects on tumor cells (in words) [2]: only weak cytotoxic effects

CC(=O)N(O)CCCCCNC(=O)CCC(=O)N(O)CCCCCNC(=O)CCC(=O)N(O)CCCCCN [desferrioxamine, reference compound]
IC50 [3]: 70 µM | cytotoxicity (in words) ([1]; MBT2 cells, 72 hours, MTT): cytotoxic | IC50 ([1]; Mus musculus, MBT2 cells, 72 hours, MTT, single experiment of FIG. 8, read-out: calculated IC50 from FIG. 8 data): 70 µM | IC50 ([1]; Mus musculus, MBT2 cells, 72 hours, MTT, tachpyr: average of four independent experiments ± standard error, read-out: IC50): 70 µM

CC(N)CNC1CC(NCC(C)N)CC(NCC(C)N)C1 (centres unmarked) [tachpn]
IC50 ([4]; preliminary cell culture experiments, cell line not stated): ~80 µM | decrease in toxicity relative to tachpyr ([4]; ratio of IC50 values): 17 fold

C(=NC1CC(N=Cc2ccccn2)CC(N=Cc2ccccn2)C1)c1ccccn1 (stereo not drawn) [tachpyr-3H2, cis,cis-1,3,5-tris(pyridine-2-carboxaldimino)cyclohexane]
cytotoxicity (in words) [5]: no cytotoxicity

c1ccc(CNC2CC(NCc3ccccn3)CC(NCc3ccccn3)C2)nc1 (centres unmarked) [tachpyr]
IC50 [6]: 30.5 µM | IC50 [7]: 4.3 µM | cytotoxicity (in words) [8]: cytotoxic | toxicity (in words) [9]: extremely toxic | ferritin synthesis [10]: repressed | delay of cytotoxicity ([1]; MBT2 cells, 25 μM tachpyr, time course, MTT): approximately 24 hours | cytotoxicity (in words) ([1]; MBT2 cells, 72 hours, MTT): cytotoxic | IC50 ([1]; MBT2 cells, 72 hours, MTT, single experiment of FIG. 8, read-out: calculated IC50 from FIG. 8 data): 3.6 µM | IC50 ([1]; MBT2 cells, 72 hours, MTT, tachpyr: average of four independent experiments ± standard error, read-out: IC50): 4.6 ± 2 µM | IC50 ([1]; Table I, cell type MBT2, read-out: IC50(μM) of Tachpyr): 2.2 µM | DNA fragmentation (DNA ladders) [11]: clearly induced DNA fragmentation | colony formation [12]: inhibited colony formation

[Fe(tachpyr)]Cl2 [FE(II) complex of tachpyr]
cytotoxicity (in words) ([1]; MBT2 cells, 72 hours, MTT): not toxic
